Test results reported in US20220163532A1, “NUCLEAR-DERIVED EXOSOMES AND METHODS OF USE THEREOF” (Board of Regents, The University of Texas System, priority 2019, published 2022).

Tests used:
Format in all cases: cell-based, human
[1] = system: OVCAR-5 and OVCAR-8 cells; assay: MN quantification in ovarian cancer cells treated with genotoxic drugs (IF, Lamin A/C); conditions: topotecan 10 nM or olaparib 20 μM, vs DMSO
Protocol: IF experiments and MN quantification. Cells were plated at a density of 5×10^4 cells on sterile, 0.17-mm-thick coverslips (12-548-A, Thermo Fisher Scientific) placed at the bottom of six-well plates. The next day, cells were treated for 24 hours with either vehicle control dimethyl sulfoxide (DMSO; 1:1000 dilution; D2650, Sigma-Aldrich), 20 μM olaparib (O-9201, LC Laboratories), or 10 nM topotecan (T2705-50MG, Sigma-Aldrich). After 24 hours, the cells were washed with PBS and refed with the appropriate cell culture medium to grow for another 48 hours, for a total time of 72 hours after initial plating on the coverslips.
The drug-treated cells were first washed three times with PBS, fixed with 4% paraformaldehyde (PFA; 50-980-487, Thermo Fisher Scientific) diluted in PBS, and incubated at RT for 15 min with light rocking. […] Last, cells on coverslips were then washed four times with PBS and mounted on slides using ProLong Diamond Antifade Mountant (P36961, Thermo Fisher Scientific) and imaged with a Leica fluorescence microscope (Leica DM4000 M LED; Leica Microsystems) or an Andor Revolution XDi WD Spinning Disk Confocal microscope. For MN quantification, the number of MN in each 40× field was counted using 10 fields per sample. […]

[2] = system: OVCAR-5 and OVCAR-8 cells; assay: DNA-positive exosomes (nExo) from drug-treated ovarian cancer cells by imaging flow cytometry; conditions: topotecan 10 nM or olaparib 20 μM, parental cells treated 48 hours, vs DMSO
Protocol: (§1) Isolation of exosomes. The isolation method for exosomes that was used in this study followed the standard methods of the International Society of Extracellular Vesicles (Witwer et al., 2013). Cell lines described above were grown in the corresponding medium described above until 60 to 70% confluence was achieved. Cells were then washed twice with phosphate-buffered saline (PBS) and grown in corresponding medium containing 1% exosome-free FBS (EXO-FBS-250A-1, System Biosciences) plus 0.1% gentamicin for 48 hours. For exosome isolation, the harvested medium underwent serial centrifugation. First, the medium was spun down at 500g for 10 min to pellet any floating cells. Next, the supernatant was collected and spun down at 2000g for 30 min to pellet any residual cell debris. The resulting supernatant was then filtered through a 0.22-μm filter (SCGPUO5RE and SLGP033RS, Millipore-Sigma) to remove any remaining large vesicles. […] Exosome concentration and quantity were determined using NTA with a NanoSight NS300 instrument (Malvern Panalytical).
Exosome staining for imaging flow cytometry and analysis. For quantitative analysis and imaging flow cytometry of exosomes, the method described by Erdbrugger et al. (2014) using an Amnis ImageStreamX MarkII analyzer was adapted. […]

ovarian cancer cells = assay: Nuclear proteins in exosomes from drug-treated ovarian cancer cells (Western blot); conditions: topotecan 10 nM or olaparib 20 μM
Protocol: as §1, with “vesicles. After filtration, the medium was spun down at 40,000 rpm for 2 hours at 4° C. in an ultracentrifuge (Optima XE, Beckman Coulter) with a Ti 45 fixed-angle rotor (339160, Beckman Coulter).” for “vesicles.”
Western blotting. […] Protein concentration was determined using the Micro BCA Protein Assay Kit (23235, Thermo Fisher Scientific) according to the manufacturer's protocol. […]

For `O=C(c1cc(Cc2n[nH]c(=O)c3ccccc23)ccc1F)N1CCN(C(=O)C2CC2)CC1` [olaparib], the “number of MN” value [1] was “increased significantly”, the “population of exosomes containing gDNA (proportion of nExo secreted)” value [2] was “increased” and the “population of exosomes containing nuclear proteins” value (ovarian cancer cells) was “increased”.
